Test results from ChEMBL document CHEMBL1201862, “PubChem BioAssay data set” (2004).
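Five concentrations, 48 hours, 96-well plates. GI50 = concentration required for 50% inhibition of growth.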 Activity calls are given as the source filed them. Cut-off read from the data, not from the text of the source: active = GI50 up to about 1.1 µM and inactive = higher.

Columns and labels:
Assay in all cases: inhibition of tumour cell growth, NCI panel, 48 h
KM12 = test system: KM12
SN12C = test system: SN12C
786-0 = test system: 786-0
DU-145 = test system: DU-145
HT-29 = test system: HT-29
HCT-116 = test system: HCT-116
HOP-92 = test system: HOP-92
SF-295 = test system: SF-295
SK-MEL-5 = test system: SK-MEL-5
SF-539 = test system: SF-539
NCI-H226 = test system: NCI-H226
A498 = test system: A498
NCI-H522 = test system: NCI-H522
A549 = test system: A549
COLO 205 = test system: COLO 205
PC-3 = test system: PC-3
SK-MEL-2 = test system: SK-MEL-2
U-251 = test system: U-251
MDA-N = test system: MDA-N
M14 = test system: M14

Compound | GI50 (KM12) | GI50 (SN12C) | GI50 (786-0) | GI50 (DU-145) | GI50 (HT-29) | GI50 (HCT-116) | GI50 (HOP-92) | GI50 (SF-295) | GI50 (SK-MEL-5) | GI50 (SF-539) | GI50 (NCI-H226) | GI50 (A498) | GI50 (NCI-H522) | GI50 (A549) | GI50 (COLO 205) | GI50 (PC-3) | GI50 (SK-MEL-2) | GI50 (U-251) | GI50 (MDA-N) | GI50 (M14)
CC(C)(C)O/N=C/c1cc(NC(=S)c2ccccc2)ccc1Cl | 12.7 µM (inactive) | 12.2 µM (inactive) | 14.3 µM (inactive) | 17.3 µM (inactive) | 13.7 µM (inactive) | 12.3 µM (inactive) | 14.9 µM (inactive) | 18 µM (inactive) | 21 µM (inactive) | 25.7 µM (inactive) | 16.8 µM (inactive) | 13.6 µM (inactive) | 11.3 µM (inactive) | 15.7 µM (inactive) | 14.3 µM (inactive) | 16.4 µM (inactive) | 16.6 µM (inactive) | 17 µM (inactive) | 14.2 µM (inactive) | 18.6 µM (inactive)
CCOC(=O)Cn1c(C(F)(F)F)nc2nc(Cl)c(Cl)nc21 | 15.3 µM (inactive) | 49.4 µM (inactive) | > 76.9 µM (inactive) | 3.8 µM (inactive) | 51.9 µM (inactive) | 38.9 µM (inactive) | 24.7 µM (inactive) | 29 µM (inactive) | 27.3 µM (inactive) | > 55.7 µM (inactive) | 50 µM (inactive) | 25.5 µM (inactive) | 20.8 µM (inactive) | 47.8 µM (inactive) | 40 µM (inactive) | 32.2 µM (inactive) | 24.7 µM (inactive) | 33.5 µM (inactive) | 37.2 µM (inactive) | 41.3 µM (inactive)
Cc1cn(C2CC(O)C(Cn3cc(Cn4ncc(=O)[nH]c4=O)nn3)O2)c(=O)[nH]c1=O (stereo not given) | > 100 µM (inactive) | > 100 µM (inactive) | > 100 µM (inactive) | > 100 µM (inactive) | > 100 µM (inactive) | > 100 µM (inactive) | > 100 µM (inactive) | > 100 µM (inactive) | > 100 µM (inactive) | > 100 µM (inactive) | > 100 µM (inactive) | > 100 µM (inactive) | > 100 µM (inactive) | > 100 µM (inactive) | > 100 µM (inactive) | > 100 µM (inactive) | > 100 µM (inactive) | > 100 µM (inactive) | > 100 µM (inactive) | > 100 µM (inactive)
CC(C)NC(=O)OCCN=C1c2ccccc2C(Br)C(Br)c2ccccc21 (stereo not given) | 21.8 µM (inactive) | 12.6 µM (inactive) | 4.14 µM (inactive) | 6.98 µM (inactive) | 4.7 µM (inactive) | 7.01 µM (inactive) | 5.3 µM (inactive) | 19 µM (inactive) | 7.19 µM (inactive) | 4.02 µM (inactive) | 15.6 µM (inactive) | 1.62 µM (inactive) | 1.68 µM (inactive) | 24.7 µM (inactive) | 5.13 µM (inactive) | 11.6 µM (inactive) | 23.7 µM (inactive) | 10 µM (inactive) | 5.85 µM (inactive) | 8.65 µM (inactive)
Cc1coc2c1C(OC(=O)C(C)C)C1(C)C(C)CCC(O)C1C2=O (stereo not given) | > 100 µM (inactive) | > 100 µM (inactive) | > 100 µM (inactive) | > 100 µM (inactive) | > 100 µM (inactive) | > 100 µM (inactive) | > 100 µM (inactive) | > 100 µM (inactive) | > 100 µM (inactive) | > 100 µM (inactive) | > 100 µM (inactive) | > 100 µM (inactive) | 67.1 µM (inactive) | > 100 µM (inactive) | 97.7 µM (inactive) | 97.9 µM (inactive) | > 100 µM (inactive) | > 100 µM (inactive) | > 100 µM (inactive) | > 100 µM (inactive)
O/N=C1\CC2(N3CCOCC3)CCC1(c1ccccc1)CC2 | > 100 µM (inactive) | > 100 µM (inactive) | > 100 µM (inactive) | > 100 µM (inactive) | > 100 µM (inactive) | > 100 µM (inactive) | > 100 µM (inactive) | > 100 µM (inactive) | > 100 µM (inactive) | > 100 µM (inactive) | > 100 µM (inactive) | > 100 µM (inactive) | > 100 µM (inactive) | > 100 µM (inactive) | > 100 µM (inactive) | > 100 µM (inactive) | > 100 µM (inactive) | > 100 µM (inactive) | > 100 µM (inactive) | > 100 µM (inactive)
COc1ccc(CCNC2=CC(=O)c3ncccc3C2=O)cc1OC | 3.59 µM (inactive) | 0.973 µM (active) | 3.31 µM (inactive) | 1.67 µM (inactive) | 2.12 µM (inactive) | 2.51 µM (inactive) | 8.95 µM (inactive) | 0.794 µM (active) | 0.184 µM (active) | 2.07 µM (inactive) | 1.42 µM (inactive) | 1.82 µM (inactive) | 2.11 µM (inactive) | 0.918 µM (active) | 1.79 µM (inactive) | 2.54 µM (inactive) | 1.48 µM (inactive) | 0.863 µM (active) | 1.18 µM (inactive) | 1.15 µM (inactive)
COc1ccc2c(c1)C1Oc3ccccc3CC1(O)CO2 (stereo not given) | > 100 µM (inactive) | > 100 µM (inactive) | > 100 µM (inactive) | > 100 µM (inactive) | > 100 µM (inactive) | > 100 µM (inactive) | > 100 µM (inactive) | > 100 µM (inactive) | > 100 µM (inactive) | > 100 µM (inactive) | > 100 µM (inactive) | > 100 µM (inactive) | > 100 µM (inactive) | > 100 µM (inactive) | > 100 µM (inactive) | > 100 µM (inactive) | > 100 µM (inactive) | > 100 µM (inactive) | > 100 µM (inactive) | > 100 µM (inactive)
COc1ccc2c3c1O[C@H]1C(=O)C=CC4(n5[nH]c(=O)n(-c6ccccc6)c5=O)C(C2)N(C)CCC314 (stereo not given in full) | > 100 µM (inactive) | > 100 µM (inactive) | > 100 µM (inactive) | > 100 µM (inactive) | > 100 µM (inactive) | > 100 µM (inactive) | > 100 µM (inactive) | > 100 µM (inactive) | > 100 µM (inactive) | > 100 µM (inactive) | > 100 µM (inactive) | > 100 µM (inactive) | > 100 µM (inactive) | > 100 µM (inactive) | > 100 µM (inactive) | > 100 µM (inactive) | > 100 µM (inactive) | > 100 µM (inactive) | > 100 µM (inactive) | > 100 µM (inactive)
CN1C(=O)c2ccc3ccccc3c2C1=O | > 100 µM (inactive) | > 100 µM (inactive) | > 100 µM (inactive) | > 100 µM (inactive) | > 100 µM (inactive) | 77.4 µM (inactive) | 98.6 µM (inactive) | > 100 µM (inactive) | > 100 µM (inactive) | > 100 µM (inactive) | > 100 µM (inactive) | 47.3 µM (inactive) | 86.1 µM (inactive) | > 100 µM (inactive) | > 100 µM (inactive) | > 100 µM (inactive) | > 100 µM (inactive) | > 100 µM (inactive) | > 100 µM (inactive) | > 100 µM (inactive)
CCOC(=O)c1cccc(/N=N/c2ncc(/C=C/C(=O)OC)[nH]2)c1 | 23.2 µM (inactive) | 7.03 µM (inactive) | 14.6 µM (inactive) | 19.1 µM (inactive) | 23.5 µM (inactive) | 18.2 µM (inactive) | 32.1 µM (inactive) | 20.4 µM (inactive) | 10.8 µM (inactive) | 21.5 µM (inactive) | 36.1 µM (inactive) | 20.8 µM (inactive) | 15.7 µM (inactive) | 24.5 µM (inactive) | 18.8 µM (inactive) | 24.3 µM (inactive) | 27.4 µM (inactive) | 22.6 µM (inactive) | 15.7 µM (inactive) | 26 µM (inactive)
CS/C(=N\C#N)NC1CC(n2cc(C)c(=O)[nH]c2=O)OC1CO (stereo not given) | > 100 µM (inactive) | > 100 µM (inactive) | > 100 µM (inactive) | > 100 µM (inactive) | > 100 µM (inactive) | > 100 µM (inactive) | > 100 µM (inactive) | > 100 µM (inactive) | > 100 µM (inactive) | > 100 µM (inactive) | > 100 µM (inactive) | > 100 µM (inactive) | > 100 µM (inactive) | > 100 µM (inactive) | > 100 µM (inactive) | > 100 µM (inactive) | > 100 µM (inactive) | > 100 µM (inactive) | > 100 µM (inactive) | > 100 µM (inactive)
O=C([O-])C(O)C(O)C(O)C(O)C(=O)O.[K+] (stereo not given) | > 100 µM (inactive) | > 100 µM (inactive) | > 100 µM (inactive) | > 100 µM (inactive) | > 100 µM (inactive) | > 100 µM (inactive) | > 100 µM (inactive) | > 100 µM (inactive) | > 100 µM (inactive) | > 100 µM (inactive) | > 100 µM (inactive) | > 100 µM (inactive) | > 100 µM (inactive) | > 100 µM (inactive) | > 100 µM (inactive) | > 100 µM (inactive) | > 100 µM (inactive) | > 100 µM (inactive) | > 100 µM (inactive) | > 100 µM (inactive)
COc1cc(/C=C2/C(=O)N(C(=O)c3ccccc3O)N=C2C)ccc1O | 0.202 µM (active) | 0.719 µM (active) | 0.421 µM (active) | 0.658 µM (active) | 9.55 µM (inactive) | 0.0957 µM (active) | 0.143 µM (active) | 0.214 µM (active) | 0.274 µM (active) | 0.14 µM (active) | 0.701 µM (active) | 0.0771 µM (active) | 0.593 µM (active) | 0.358 µM (active) | 18.9 µM (inactive) | 0.802 µM (active) | 1.01 µM (active) | 0.144 µM (active) | 0.385 µM (active) | 0.698 µM (active)
